Several values for one entry are separate records, joined by “and”; a condition that tells them apart may be missing. Equal entries are not always repeated.
SMILES | melting point
O[C@@H]1OC[C@@H](OCc2ccccc2)[C@@H](OCc2ccccc2)[C@@H]1OCc1ccccc1 [2,3,4-tri-o-benzyl-beta-D-arabinopyranose] | 69 °C
OB(O)c1ccc(F)c(F)c1F [2,3,4-trifluorobenzeneboronic acid] | 203 °C
O=Cc1ccc(O)c(O)c1O [2,3,4-trihydroxybenzaldehyde] | 167 °C
COc1ccc(C=O)c(OC)c1OC [2,3,4-trimethoxybenzaldehyde] | 40 °C
O=[N+]([O-])c1c(Cl)c(Cl)cc(Cl)c1Cl [2,3,5,6-tetrachloro-nitrobenzene] | 99.5 °C
O=[N+]([O-])c1c(Cl)c(Cl)cc(Cl)c1Cl [2,3,5,6-tetrachloronitrobenzene] | 100 °C
OB(O)c1c(F)c(F)cc(F)c1F [2,3,5,6-tetrafluorobenzeneboronic acid] | 143 °C
Oc1c(F)c(F)c(O)c(F)c1F [2,3,5,6-tetrafluorohydroquinone] | 169 °C
Oc1c(F)c(F)cc(F)c1F [2,3,5,6-tetrafluorophenol] | 29 °C
OB(O)c1cc(Cl)cc(Cl)c1Cl [2,3,5-trichlorobenzeneboronic acid] | 245 °C
Oc1c(F)ccc(F)c1F [2,3,6-trifluorophenol] | 34 °C
Oc1cccc(Cl)c1Cl [2,3-Dichlorophenol] | 56 °C
c1ccc2cc3cc4ccccc4cc3cc2c1 [2,3-benzanthracene] | 341 °C
CC(O)C(C)O (configuration not stated) [2,3-butanediol] | 25 °C
CC(=O)C(C)=NO [2,3-butanedione monoxime] | 76 °C
Nc1cc2ccccc2cc1N [2,3-diaminonaphthalene] | 195 °C
Nc1cccc(Cl)c1Cl [2,3-dichloroaniline] | 24 °C
OB(O)c1cccc(Cl)c1Cl [2,3-dichlorobenzeneboronic acid] | 238 °C
O=S(=O)(Cl)c1cccc(Cl)c1Cl [2,3-dichlorobenzenesulfonyl chloride] | 60 °C

SMILES | melting point
Oc1cccc(Cl)c1Cl [2,3-dichlorophenol] [listing 1 of 2 here] | 58 °C and 56 °C
Oc1cccc(Cl)c1Cl [2,3-dichlorophenol] [listing 2 of 2 here] | 59 °C
OB(O)c1ccnc(Cl)c1Cl [2,3-dichloropyridine-4-boronic acid] | 137 °C
O=Cc1cccc(O)c1O [2,3-dihydroxybenzaldehyde] | 108 °C
O=C(O)c1cccc(O)c1O [2,3-dihydroxybenzoic acid] | 206 °C
Oc1cc2ccccc2cc1O [2,3-dihydroxynaphthalene] | 164 °C
COC1=C(OC)C(=O)C(C)=CC1=O [2,3-dimethoxy-5-methyl-1,4-benzoquinone] | 59 °C
COc1cccc(B(O)O)c1OC [2,3-dimethoxybenzeneboronic acid] | 69 °C
COc1cccc(C#N)c1OC [2,3-dimethoxybenzonitrile] | 46 °C
CC(C)C(C)(C)O [2,3-dimethyl-2-butanol] | -10 °C
Clc1ccc(C(c2ccccc2Cl)C(Cl)(Cl)Cl)cc1 (configuration not stated) [2,4'-DDT] | 75 °C
O=C(CBr)c1ccc(Br)cc1 [2,4'-dibromoacetophenone] | 110 °C
COc1ccc(C(=O)c2ccc(OC)cc2OC)cc1 [2,4,4'-trimethoxybenzophenone] | 72 °C
CC(C)=C/C(C)(C)C [2,4,4-trimethyl-2-pentene] | -106 °C
Clc1cc(Cl)c(-c2ccccc2)cc1Cl [2,4,5-Trichlorobiphenyl] | 78 °C
Clc1cc(Cl)c(-c2ccccc2)cc1Cl [2,4,5-trichlorobiphenyl] | 78 °C
C=C[Si]1(C)O[Si](C)(C=C)O[Si](C)(C=C)O[Si](C)(C=C)O1 (configuration not stated) [2,4,6,8-tetramethyl-2,4,6,8-tetravinylcyclotetrasiloxane] | -43 °C
Nc1c(Br)cc(Br)cc1Br [2,4,6-Tribromoaniline] | 121 °C

Reference: the Bradley open melting point set (2014)
